Patent publication US20060270634A1, “Acetal phosphate-derived LPA mimics, PPARgamma activators, and autotaxin inhibitors” (priority 2005, published 2006)
“Also recorded” adds a separate entry of the source. Where two headings read alike, the source gives them in different places.

How the values were obtained:
LPA2 = LPA2 (Homo sapiens, UniProt Q9HBW0); assay: Ca2+ transients in RH7777 cells expressing LPA2 (agonist / inhibition of LPA response); details: for Emax: RH7777, read-out: LPA2 (Emax); for LPA2 effect in words: *transient
Sequence of LPA2 (Q9HBW0 whole entry, species assumed): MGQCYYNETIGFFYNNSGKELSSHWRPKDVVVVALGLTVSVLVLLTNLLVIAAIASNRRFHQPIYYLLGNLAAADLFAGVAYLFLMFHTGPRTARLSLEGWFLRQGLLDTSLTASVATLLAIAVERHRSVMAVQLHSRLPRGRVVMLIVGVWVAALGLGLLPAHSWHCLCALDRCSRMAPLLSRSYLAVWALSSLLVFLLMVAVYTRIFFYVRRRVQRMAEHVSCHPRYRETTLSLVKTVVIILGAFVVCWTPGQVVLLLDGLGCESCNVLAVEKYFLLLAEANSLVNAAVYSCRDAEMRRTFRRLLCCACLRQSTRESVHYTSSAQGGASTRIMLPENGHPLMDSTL
Description: (§1) The biological effects of all synthesized compounds were testing using three high-throughput assays. First, intracellular calcium transients in rat hepatoma (RH777, an LPA receptor null cell) cell lines individually expressing either LPA1, LPA2, and LPA3 receptors were analyzed to evaluate compounds as agonists or antagonists.
(§2) Synthesized compounds were tested for induction and inhibition of LPA-induced calcium transients in rat hepatoma (RH7777) cell lines that stably express individual LPA1, LPA2, and LPA3 receptors as described in the literature using a FlexStation II automated fluorimeter (Molecular Devices, Sunnyvale, Calif.).
(§3) RH7777 cells, which lack LPA GPCR, were stably transfected with individual LPA1, LPA2 and LPA3 receptors and used for the in vitro screening.

LPA1 = LPA1 (Homo sapiens, UniProt Q92633); assay: Ca2+ transients in RH7777 cells expressing LPA1 (agonist / inhibition of LPA response); details: for Emax: RH7777, read-out: LPA1 (Emax); for LPA1 effect in words: Tables 2, 4, 6; for EC50: read-out: LPA1 EC50
Sequence of LPA1 (Q92633 whole entry, species assumed): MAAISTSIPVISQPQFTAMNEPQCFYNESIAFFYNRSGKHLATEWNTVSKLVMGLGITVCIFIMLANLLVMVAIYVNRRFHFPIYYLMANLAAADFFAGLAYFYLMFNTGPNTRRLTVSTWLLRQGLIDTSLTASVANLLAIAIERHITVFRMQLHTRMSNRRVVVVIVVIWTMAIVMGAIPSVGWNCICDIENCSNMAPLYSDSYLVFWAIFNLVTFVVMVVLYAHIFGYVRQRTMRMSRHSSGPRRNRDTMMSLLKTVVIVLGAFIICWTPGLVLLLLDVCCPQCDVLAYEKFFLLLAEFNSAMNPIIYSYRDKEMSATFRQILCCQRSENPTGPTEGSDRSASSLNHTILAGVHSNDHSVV
Description: as §1, §2, §3

LPA3 = target: T1, LPA3 (Homo sapiens, UniProt Q9UBY5); assay: Ca2+ transients in RH7777 cells expressing LPA3 (agonist / inhibition of LPA response); details: for EC50: read-out: LPA3 EC50; for IC50: read-out: LPA3 IC50; for LPA3 effect in words: Tables 2, 4, 6
T1 sequence (Q9UBY5 1-353): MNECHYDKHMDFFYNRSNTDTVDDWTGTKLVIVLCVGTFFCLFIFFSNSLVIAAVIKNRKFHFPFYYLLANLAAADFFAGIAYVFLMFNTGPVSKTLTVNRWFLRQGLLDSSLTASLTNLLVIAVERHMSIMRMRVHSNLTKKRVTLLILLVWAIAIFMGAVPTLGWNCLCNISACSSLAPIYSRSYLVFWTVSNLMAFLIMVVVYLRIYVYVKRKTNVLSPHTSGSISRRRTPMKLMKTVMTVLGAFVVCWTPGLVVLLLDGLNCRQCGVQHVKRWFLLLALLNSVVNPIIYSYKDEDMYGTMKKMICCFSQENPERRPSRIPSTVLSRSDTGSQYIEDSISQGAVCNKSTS
Description: as §1, §2, §3

[1] = read-out: LPA1 IC50, 200 nM LPA

CCCCCCCC/C=C\CCCCCCC[C@@H]1OC[C@@H](COP(O)(O)=S)O1 [Analog 28]
IC50 (LPA2): > 30000 nM
EC50 (LPA2; LPA2 (nM) EC50, Table 1): 1710 nM

CCCCCCCC(=O)OCC(COP(=O)(O)O)OC(=O)CCCCCCC (centres unmarked) [Cpd 2, phosphatidic acid 8:0, reference compound]
Ki (LPA1): 407 nM
IC50 (LPA1; LPA1 IC50, Table 5): 692 nM

CCCCCCCC(=O)OC[C@@H](COP(=O)(O)O)OC(=O)CCCCCCC [Cpd 7a, (2S)-PA 8:0]
LPA1 agonist/antagonist activity in words (LPA1): subtype selective antagonism
Ki (LPA1; read-out: LPA1 (Ki), Table 5): 221 nM
IC50 (LPA1; read-out: LPA1 IC50, Table 5): 433 nM
LPA2 agonist/antagonist activity in words (LPA2): no effect
LPA3 agonist/antagonist activity in words (LPA3): subtype selective antagonism

CCCCCCCC(=O)OC[C@@H](COP(O)(O)=S)OC(=O)CCCCCCC [Cpd 8a, thiophosphatidic acid 8:0]
LPA1 agonist/antagonist activity in words (LPA1): lacked LPA1/3 antagonism
LPA2 agonist/antagonist activity in words (LPA2): partial agonist
Emax (LPA2): 17%
EC50 (LPA2; read-out: LPA2 EC50, Table 5): 7170 nM
LPA3 agonist/antagonist activity in words (LPA3): partial agonist
Emax (LPA3; RH7777, read-out: LPA3 (Emax)): 30%
EC50 (LPA3; Table 5): 115 nM

CCCCCCCC(=O)OC[C@H](COP(O)(O)=S)OC(=O)CCCCCCC [Cpd 8b, (2R)-TPA 8:0]
LPA1 agonist/antagonist activity in words (LPA1): more potent antagonist
Ki (LPA1; read-out: LPA1 (Ki), Table 5): 360 nM
IC50 (LPA1; read-out: LPA1 IC50, Table 5): 686 nM
LPA2 agonist/antagonist activity in words (LPA2): partial agonist
Emax (LPA2): 58%
EC50 (LPA2; read-out: LPA2 EC50, Table 5): 6330 nM
selectivity for LPA3 over LPA1 (LPA3): 75 fold
IC50 (LPA3; Table 5): 11 nM
Ki (LPA3; read-out: LPA3 Ki): 5 nM

CCCCCCCCOC[C@@H](COP(=O)(O)O)OCCCCCCCC [Cpd 12a]
Ki (LPA1; read-out: LPA1 (Ki), Table 5): 486 nM
IC50 (LPA1; [1]): 1580 nM
IC50 (LPA1; read-out: LPA1 IC50, Table 5): 1580 nM
LPA2 effect in words (LPA2): Weak inhibition(?) *transient
Ki (LPA3; read-out: LPA3 (Ki), Table 5): 50 nM
IC50 (LPA3; 200 nM LPA): 143 nM
IC50 (LPA3; Table 5): 143 nM

CCCCCCCCOC[C@H](COP(=O)(O)O)OCCCCCCCC [Cpd 12b, (2R)-APA 8:0]
LPA1 agonist/antagonist activity in words (LPA1): agonists; also recorded: Enantiospecific activation
Emax (LPA1): 57%
LPA1 effect in words (LPA1): Partial agonist
EC50 (LPA1): 3260 nM
EC50 (LPA1; Table 5, PA 8:0 analogs): 3260 nM
LPA2 effect in words (LPA2): Partial agonist
EC50 (LPA2; LPA2 EC50, *transient): 2530 nM
LPA3 agonist/antagonist activity in words (LPA3): agonists; also recorded: Enantiospecific activation
Emax (LPA3; RH7777, read-out: LPA3 (Emax)): 109%
LPA3 effect in words (LPA3): Full agonist
EC50 (LPA3): 164 nM
EC50 (LPA3; Table 5): 164 nM

CCCCCCCCOC[C@@H](COP(O)(O)=S)OCCCCCCCC [Cpd 13a, dialkyl thiophosphatidic acid 8:0]
Ki (LPA1; read-out: LPA1 (Ki), Table 5): 139 nM
IC50 (LPA1; [1]): 328 nM
IC50 (LPA1; read-out: LPA1 IC50, Table 5): 328 nM
LPA2 effect in words (LPA2): Weak stimulation *transient
Ki (LPA3; read-out: LPA3 (Ki), Table 5): 67 nM
IC50 (LPA3; 200 nM LPA): 184 nM
IC50 (LPA3; Table 5): 184 nM

CCCCCCCCOC[C@H](COP(O)(O)=S)OCCCCCCCC [Cpd 13b, 2(R)-ATPA 8:0]
LPA1 agonist/antagonist activity in words (LPA1): agonists; also recorded: Enantiospecific activation
Emax (LPA1): 30%
LPA1 effect in words (LPA1): Partial agonist
EC50 (LPA1): 695 nM
EC50 (LPA1; Table 5, PA 8:0 analogs): 695 nM
LPA2 agonist/antagonist activity in words (LPA2): weak and partial agonist
LPA2 effect in words (LPA2): Partial agonist
EC50 (LPA2; LPA2 EC50, *transient): 1020 nM
Emax (LPA2): 27%
LPA3 agonist/antagonist activity in words (LPA3): agonists; also recorded: potent LPA3 receptor subtype-selective agonist; also recorded: full agonist
selectivity for LPA3 over LPA1 (LPA3): ~230 fold
selectivity for LPA3 over LPA2 (LPA3): ~1900 fold
Emax (LPA3; RH7777, read-out: LPA3 (Emax)): 109%
Emax (LPA3; RH7777, read-out: LPA3 Emax): 109%
LPA3 effect in words (LPA3): Full agonist
EC50 (LPA3): 3 nM
EC50 (LPA3; Table 5): 3 nM
EC50 (LPA3; text): 3 nM

CCCCCCCCNC(=O)[C@H](COP(O)(O)=S)NC(=O)CCCCCCC [Cpd 20a]
Ki (LPA1; read-out: LPA1 (Ki), Table 5): 152 nM
IC50 (LPA1; read-out: LPA1 IC50, Table 5): 476 nM
Ki (LPA3; read-out: LPA3 (Ki), Table 5): 117 nM
IC50 (LPA3; Table 5): 251 nM

CCCCCCCCNC(=O)[C@@H](COP(O)(O)=S)NC(=O)CCCCCCC [Cpd 20b]
Ki (LPA1; read-out: LPA1 (Ki), Table 5): 2850 nM
IC50 (LPA1; read-out: LPA1 IC50, Table 5): 7390 nM
Ki (LPA3; read-out: LPA3 (Ki), Table 5): 118 nM
IC50 (LPA3; Table 5): 302 nM

CCCCCCCCc1ccc(CCCCCCC2OCC(COP(=O)(O)O)O2)cc1 (centres unmarked) [ID 14]
IC50 (LPA1; [1]): 4660 nM
LPA3 effect in words (LPA3): Partial agonist

CCCCCCCCc1ccc(CCCCCCC2OCC(COP(O)(O)=S)O2)cc1 (centres unmarked) [ID 15]
LPA1 effect in words (LPA1): Weak antagonist

CCCCCCCC/C=C\CCCCCCCC(=O)OC[C@@H](O)COP(=O)(O)O [Oleoyl-LPA, reference compound]
LPA1 agonist/antagonist activity in words (LPA1): agonist of LPA1-3
LPA2 agonist/antagonist activity in words (LPA2): agonist of LPA1-3
LPA3 agonist/antagonist activity in words (LPA3): agonist of LPA1-3
